Data: US10137099B2, “Activation of AMP-protein activated kinase by oxaloacetate compounds” (priority 2010, dated 2018)
Where two headings read alike, the source gives them in different places.

Tests used:
[1] = Example 3: body weight of obese patient over three months; format: in vivo, human
Excerpt: AMPK is activated and the patient drops in weight from 258 to 234 pounds in a three month period. The patient is no longer obese.

[2] = Example 5: blood pressure in patient with hypertension; format: in vivo, human; conditions: 100 mg daily for three months
Excerpt: A patient is diagnosed with hypertension. […] The patient's blood pressure decreases by 10%.

[3] = Example 4: maintenance of weight loss after diet; format: in vivo, human; conditions: 100 mg daily
Excerpt: A patient successfully loses 24 pounds.

[4] = Stability and shelf life of oxaloacetic acid forms; conditions: for stability / shelf life at room temperature: kept dry, reduced water content
Excerpt: (§1) The keto-oxaloacetate decarboxylates quickly to pyruvate. As the keto-oxaloacetate form disappears due to decarboxylation, the enol and hydrated form convert to keto-oxaloacetate, and then also decarboxylate into carbon dioxide and pyruvate, until all the oxaloacetate is consumed. Note that neither of the byproducts of oxaloacetate decarboxylation, carbon dioxide and pyruvate, are effective in activating AMPK.
(§2) The keto-oxaloacetate decarboxylates quickly, followed by enol conversion to keto form and further decarboxylation. […] Na-OAA has no shelf life, and is not available commercially.
There is an energy gap between the enol and keto form which is bridged when the compounds are exposed to water, however, this same energy gap prevents the conversion of the enol to keto form when the product is kept dry. Once there is a conversion to the keto form, decarboxylation can spontaneously occur at temperatures above the freezing point of water. […] Drying effectiveness can be increased by increasing the drying time, drying under vacuum, by using anhydrous washes of isopropyl alcohol or ethyl alcohol to absorb the remaining water (and then evaporating the alcohol), or by performing multiple washes with hexane or non-water soluble solvent to physically remove the water, typically after an alcohol wash. The non-water soluble solvent would then be evaporated off. […] Hexane is a residual solvent in many commercial food preparations including decaffeinated coffee, and is not toxic in small quantities. Alternatively, the final wash can be performed with liquefied propane, liquefied butane, ethyl acetate, ethane, carbon dioxide, or nitrous oxide to reduce the water content.
Biochem., vol. 26, pp. 418-421, 1950, also in Heidelberger; “The Synthesis of Oxalacetic Acid-1-C14 and Orotic Acid-6-C14”, Biochem. Prepn. 3, 59 (1953) pp 4704-4706.

[5] = Example 2: fasting blood glucose tracked for several weeks; format: in vivo, human; conditions: 100 mg daily
Excerpt: The amplitude of the patient's swings in fasting glucose decrease by 55% due to improved glucose homeostasis. AMPK is activated and overall fasting glucose levels drop by 8%. The data is shown in Graph 3.

[6] = Example 1: non-diabetic subject, blood panel after 6 months; format: in vivo, human
Description: A non-diabetic subject is given 100 mg anhydrous enol-oxaloacetic acid in solid form for a period of 6 months to reduce blood triglycerides and glucose levels. AMPK is activated and the treatment is effective.

ob/ob and db/db mice = conditions: 8 day administration; cited from earlier work
[7] = 21 diabetic patients, cited from earlier work
mouse = system: mouse
Excerpt: (§3) I have investigated the toxicity of OAA in an acute study and two chronic studies.
(§4) The dose ratio between toxic and therapeutic effects is the therapeutic index and it can be expressed as the ratio LD50/ED50.

[8] = system: human A549 lung cancer tissue; conditions: uM levels, contact solution of 76 uM; not within normal tissue; cancer tissue unable to reproduce for six weeks; cited from earlier work
[9] = Hydrated/keto/enol composition in water; format: physicochemical; conditions: pH 6.9 (oxaloacetic acid), Na-OAA dissolved in water
Excerpt: The oxaloacetate can be in three forms depending on the pH of the solution. At low pH (<1.5) and low temperature (<4 degrees C.) oxaloacetate hydrates. […] The hydrated form is mostly converted once it enters the higher pH of the body outside of the intestinal tract to the keto and enol form. […] Enol-oxaloacetate is convert to keto-oxaloacetate with the enzyme enol-keto tautomerase, a ubiquitous enzyme throughout the human body.
as §1, §2

in vivo = conditions: rat
Excerpt: as §3, §4

older mice = assay: Chronic eighteen-month study in older mice; format: in vivo; conditions: 380 mg OAA/kg of mouse, eighteen months
[10] = Blood-brain barrier penetration
Excerpt: AMPK activation has been associated with reduced Alzheimer risk and potentially with Alzheimer's treatment (Richter, Erik and Ruderman, Neil, “AMPK and the biochemistry of exercise: implications for human health and disease” Biochem. J. (2009) 418, 261-275). Thus OAA may be used for reducing the risk of Alzheimer's disease and for treatment of the same.

[11] = Glucose related effects of supplementation in humans; format: in vivo, human; conditions: non-diabetic patients
Excerpt: Glucose related effects in humans have measured an 8 to 10% drop in fasting glucose levels in non-diabetic patients, a drop in triglyceride levels by 10% and a 55% reduction in the amplitude of fasting blood glucose levels.

rats = conditions: cited from earlier work
C. elegans = C. elegans lifespan with functional and non-functional AMPK; format: in vivo, Caenorhabditis elegans; conditions: for lifespan of worms with non-functional alpha AMPK subunit: dysfunctional aak-2 subunit; for lifespan of worms with non-functional alpha AMPK subunit / increase of lifespan: 8 mM oxaloacetate; for increase of lifespan: worms with functional FOXO/DAF-16 and AMPK, p<0.001
Description: I have assayed the CR mimetic OAA for AMPK activation by using the worm C. elegans containing a non-functional alpha AMPK subunit, and have compared lifespan with and without the functional AMPK subunit. […] Graph 1 is the Kaplan-Meyer survival curves for worms with functional and non-functional AMPK showing the difference in lifespan.
AMPK activation is necessary to increase lifespan of C. elegans when exposed to 8 mM concentrations of oxaloacetate. The increase in lifespan averages approximately 25%, p<0.001.

[12] = Removal of orally consumed oxaloacetic acid from blood stream into cells; format: in vivo, human
Description: The oxaloacetic acid is converted to the ionic form oxaloactate in the digestive tract, and is then absorbed into the body and is distributed throughout the body via the bloodstream. […] At time 0, the amount detected was 0 ug/100 ml blood, at time 30 minutes 0 ug/100 ml blood, and at time 60 minutes ranged from […] blood. […] Within the cells the oxaloacetate reacts into L-malate as it encounters the enzyme malate dehydrogenase (MDH). MDH is ubiquitous in human cells, and the conversion of oxaloacetate to malate is very energetically favorable (the Gibbs Free Energy, delta G, is highly negative (−29.7) indicating the reaction is very favorable to proceed). As oxaloacetate is converted to malate, NADH is converted to NAD+. The resulting increase in the NAD+/NADH ratio leads to the phosphorylation (activation) of AMPK (Rafaeloff-Phail R, Ding L, Conner L, et al. “Biochemical regulation of mammalian AMP-activated protein Kinase activity by NAD and NADH”. J Biol Chem 2004; 279: 52934-9). AMPK serves to stimulate glucose uptake into the skeltal tissues and thereby reduces glucose levels. The immediate reduction is best seen with a glucose tolerance test in individuals that have defective leptin signaling (including overweight and obese persons) that are fasting. […]

[13] = Decrease (Improvement), February to August 2007

With `O=C(O)CC(=O)C(=O)O` [anhydrous enol-oxaloacetic acid] the “Ending Weight May 2007” value ([1]; 100 mg daily, three month period, starting weight 258) was 234 pounds, the “Percent Reduction of weight” value ([1]; February 2007 to May 2007) was 9.3% and the “decrease of blood pressure” value [2] was 10%. The “liver genes Acaa1, Cnbp, Fasn, Idil, Ndufabl, Pcx, Sc5d (human homologues)” value [3] was “down regulates”, the “regain of weight lost” value ([3]; one-year period after the diet, 24 pounds lost) was “does not regain the weight lost” and the “stability / shelf life at room temperature” value [4] was “exceeding one year”. For the same compound, the “stability / shelf life at room temperature” value ([4]; listed as reduced water content oxaloacetate form) was “exceed one year”, the product decay ([4]; room temperatures, shelf life exceeding one year) was “less than 1%” and the “decrease of amplitude of swings in fasting glucose” value [5] was 55%. For the same compound, the “drop of overall fasting glucose levels” value [5] was 8%, the “Glucose Fasting, August 2007” value ([6]; 100 mg daily for 6 months, February 2007 baseline 97) was 89 mg/dL and the “Glucose Fasting % Change” value [6, 13] was 8.25%. The “Triglyceride % Change” value [6, 13] was 8.93%, the “Creatinine, August 2007” value ([6]; after 6 months, baseline 1) was 0.9 mg/dL and the “TSH, August 2007” value ([6]; after 6 months, baseline 1.41) was 1.32 uIU/ml. The “Albumin, August 2007” value ([6]; after 6 months, baseline 4.4) was 4.2 g/dL, the “K (Potassium), August 2007” value ([6]; after 6 months, baseline 4.6) was 4.5 mEq/L and the “Bun-Ser, August 2007” value ([6]; after 6 months, baseline 14) was 12 mg/dL. For the same compound, the “AST (SGOT), August 2007” value ([6]; after 6 months, baseline 16) was 15 IU/L, the “Lipase, August 2007” value ([6]; after 6 months, baseline 17) was 19 u/l and the “CO2 (Carbon Dioxide), August 2007” value ([6]; after 6 months, baseline 27) was 29 mEq/L. For the same compound, the “ALK P'TASE, August 2007” value ([6]; after 6 months, baseline 36) was 37 IU/L, the “HDL Ser Cholesterol, August 2007” value ([6]; after 6 months, baseline 42) was 42 mg/dL and the “Cl (Chloride), August 2007” value ([6]; after 6 months, baseline 110) was 108 mEq/L. The “Triglyceride, August 2007” value ([6]; after 6 months, baseline 112) was 102 mg/dL, the “LDL Cholesterol, August 2007” value ([6]; after 6 months, baseline 138) was 138 mg/dL and the “Na (Sodium), August 2007” value ([6]; after 6 months, baseline 144) was 143 mEq/L. The “Total Cholesterol, August 2007” value ([6]; after 6 months, baseline 202) was 203 mg/dL.
With `O=C(O)CC(O)(O)C(=O)O` [hydrated form of oxaloacetic acid] the shelf life [4] was “no shelf life” and the time of stability [4] was “less than one-week's time”.
For `NC(=O)c1ncn([C@@H]2O[C@H](CO)[C@@H](O)[C@H]2O)c1N` [AICAR, 5-Aminoimidazole-4-darboxamide ribonucleoside], the “reduction of blood glucose” value (ob/ob and db/db mice) is given as 35%.
In the case of `O=C(O)CC(=O)C(=O)O` [oxaloacetic acid], the side effects ([7]; 100 mg to 1,000 mg (2-10 mg/kg)) is listed as “no negative side effects”, the blood glucose levels ([7]; 100 mg to 1,000 mg) is listed as “dropped significantly in all patents” and the “patients in whom urine glucose levels dropped” value ([7]; 100 mg to 1,000 mg) is listed as 19 out of the 21. The LD50 (mouse; acute study, taken with food) was “more than 5,000 mg OAA/Kg of mouse”, the LD50 (mouse; mouse, in vivo) was “above 5 g/kg of body weight” and the time to decarboxylation ([4]; divalent cations in the fluid) was “within a day”. For the same compound, the “effect on cancer tissue” value [8] was “differential massive debris within the cancer tissue”, the “fraction in the enol form” value [9] was 11% and the “fraction in the hydrated form” value [9] was 5%. For the same compound, the “fraction in the keto form” value [9] was 84%, the NOAEL at 90 days (in vivo) was 500 mg/kg and the “lived longer than the control group” value (older mice) was 25%. The blood-brain barrier penetration [10] was “can penetrate the blood-brain barrier”, the “drop in triglyceride levels” value [11] was 10% and the “reduction in the amplitude of fasting blood glucose levels” value [11] was 55%. For the same compound, the “pancreas findings at 41 mg/kg of body weight” value (rats; 41 mg/kg) was “proliferation and hyperplasia of the islet cells”, the “pancreas findings at 83 mg/kg of body weight” value (rats; 83 mg/kg) was “caused changes in pancreatic islets” and the “lifespan of worms with non-functional alpha AMPK subunit” value (C. elegans) was “no increase in lifespan”. The “lifespan of worms with non-functional alpha AMPK subunit” value (C. elegans; listed as OAA) was “will not increase the lifespan”, the “lifespan of wild type worms subjected to calorie restriction” value (C. elegans; functional AMPK, calorie restriction plus OAA supplementation) was “do not have their lifespan increased” and the increase of lifespan (C. elegans) was “approximately 25%”. The increase of lifespan (C. elegans; listed as OAA) was 25% and the “time until most is moved from the blood stream into individual cells” value [12] was at most 120 min.
With `O=C([O-])CC(=O)C(=O)O.[Na+]` [sodium oxaloacetate] the shelf life [4] was “no shelf life”, the “fraction in the enol form” value [9] was 11% and the “fraction in the hydrated form” value [9] was 5%. For the same compound, the “fraction in the keto form” value [9] was 84%.
